In brackets after ≈: the same amount, converted by molar mass.
Columns and labels:
Assay type in all cases: physicochemical
[1] = Solubility assay by visual observation and manual dilution; conditions: thermodynamic from solid, room temperature
Method: Solubility assay was performed by visual observation and manual dilution at room temperature. […] The total amount of the solvent was recorded to calculate the solubility for each solvent.

[2] = Thermal gravimetric analysis (TGA); conditions: heating from room temperature to 120° C.
Method: Samples of compounds (4˜6 mg) were weighed into the pan, and heated under nitrogen purge.
• Ramp rate: 20° C./min over the range 30° C.˜300° C. • Nitrogen purge: 50 mL/min • Samples: About 5 mg

[3] = Accelerated stability test (HPLC purity); conditions: for Purity (%): 40 ± 2° C. & 75 ± 5% RH
Method: • Column: Agilent Zorbax Rx C8, 4.6 mm×250 mm, 5.0 μm • Moving phase: 85% acetonitrile • Flow rate: 1.0 mL/rain • Wavelength: 205 nm • Injection volume: 10 λL • Column temperature: 30° C. • Diluent: 100% acetonitrile
In order to confirm the stability of the novel crystalline form according to the present invention, the stability of the crystalline form I prepared in Example 1 was evaluated using a liquid chromatography method under the analysis conditions of <Experimental Methods>6. High performance liquid chromatography (HFLC). The results of the accelerated stability test from 1 month to 6 months in the conditions of 40±2° C. & 75±5 RH are shown in Table 15 below.

[4] = Dynamic vapor sorption (DVS); conditions: for Mass change (%) Desorption / Mass change (%) Sorption / Mass change (%) Hysteresis: 25° C.
Method: Around 10 mg of samples were used to test its moisture sorption/desorption profiles.
• Temperature: 25° C. • Equilibrium: dm/dt: 0.01%/min • Relative Humidity (RH) measurement stepscope: 0%˜95%˜0% RH • Relative Humidity (RH) measurement step: 5% RH • Samples: 10-20 mg • Hygroscopicity Classification • Hygroscopicity: Water Sorption Criterion • Deliquescent: Sufficient water is absorbed to form a liquid. • Very hygroscopic: W %≥15% • Hygroscopic: W %≥2% • Slightly hygroscopic: W %≥0.2% • Non-hygroscopic: W %<0.2% • 25±1° C., 80±2% RH

[5] = Crystalline form change on storage at room temperature (XRPD)
Method: The X-ray powder diffraction (XRPD) pattern was obtaine d on a Shimadzu XRD-6000 instrument.
• Tube: Cu: K-α (λ=1.54056 Å) • Generator: Voltage: 40 kV; Current: 30 mA • Scan Scope: 3˜50 deg. Scanning rate: 5 deg./min
[…] Particularly, XRPD was performed according to the method described in <Experimental Methods> 1. X-ray Powder Diffractometer (XRPD).

[6] = stored at room temperature for 2 months
[7] = stored at room temperature for 3 months

COC(=O)CCC/C=C(\C)[C@H]1CC[C@H]2[C@@H]3CC=C4C[C@@H](OC5C=C[C@H](OC(C)=O)[C@@H](COC(C)=O)O5)CC[C@]4(C)[C@H]3CC[C@]12C (stereo partly drawn) [compound 1, (E)-methyl 6-((3S,8S,9S,10R,13S,14S,17R)-3-(((5S,6R)-5-acetoxy-6-(acetoxymethyl)-5,6-dihydro-2H-pyran-2-yl)oxy)-10,13-dimethyl-2,3,4,7,8,9,10,11,12,13,14,15,16,17-tetradecahydro-1H-cyclopenta[a]phenanthrene-17-yl)hept-5-enoate]
solubility ([1]; organic solvent or mixture, solvent 1,4-dioxane): > 100 mg/mL | solubility ([1]; organic solvent or mixture, solvent 1-butanol): 26 to 52 mg/mL (≈ 41.5 to 83 mM) | solubility ([1]; organic solvent or mixture, solvent 2-methyl-tetrahydrofuran): > 93.2 mg/mL | solubility ([1]; organic solvent or mixture, solvent Acetone): > 100 mg/mL | solubility ([1]; organic solvent or mixture, solvent Acetonitrile (ACN)): > 82.6 mg/mL | solubility ([1]; organic solvent or mixture, solvent Anisole): > 100 mg/mL | solubility ([1]; organic solvent or mixture, solvent Butyl acetate): > 88.6 mg/mL | solubility ([1]; organic solvent or mixture, solvent Chloroform): > 100 mg/mL | solubility ([1]; organic solvent or mixture, solvent Cyclohexane): 26 to 40 mg/mL (≈ 41.5 to 63.8 mM) | solubility ([1]; organic solvent or mixture, solvent Dichloromethane (DCM)): > 100 mg/mL | solubility ([1]; organic solvent or mixture, solvent Dimethyl sulfoxide (DMSO)): 30 to 45 mg/mL (≈ 47.9 to 71.8 mM) | solubility ([1]; organic solvent or mixture, solvent Ethanol (EtOH)): 5.1 to 6.4 mg/mL (≈ 8.14 to 10.2 mM) | solubility ([1]; organic solvent or mixture, solvent Ethyl acetate (EtOAc)): > 100 mg/mL | solubility ([1]; organic solvent or mixture, solvent Isopropanol (IPA)): 5.1 to 6.8 mg/mL (≈ 8.14 to 10.8 mM) | solubility ([1]; organic solvent or mixture, solvent Isopropyl acetate (iPrOAc)): > 100 mg/mL | solubility ([1]; organic solvent or mixture, solvent Isopropyl ether): 65.2 to 130 mg/mL (≈ 104 to 208 mM) | solubility ([1]; organic solvent or mixture, solvent Methanol (MeOH)): 6.9 to 8.2 mg/mL (≈ 11 to 13.1 mM) | solubility ([1]; organic solvent or mixture, solvent Methyl ethyl ketone (MEK)): > 100 mg/mL | solubility ([1]; organic solvent or mixture, solvent Methyl tert-butyl ether (MTBE)): > 85.4 mg/mL | solubility ([1]; organic solvent or mixture, solvent N,N-dimethylformamide (DMF)): > 100 mg/mL | solubility ([1]; organic solvent or mixture, solvent Petroleum ether): 11.5 to 15.3 mg/mL (≈ 18.3 to 24.4 mM) | solubility ([1]; organic solvent or mixture, solvent Tetrahydrofuran (THF)): > 76 mg/mL | solubility ([1]; organic solvent or mixture, solvent Toluene): > 83 mg/mL | solubility ([1]; organic solvent or mixture, solvent n-heptane): 6.3 to 8.8 mg/mL (≈ 10.1 to 14 mM) | solubility ([1]; organic solvent or mixture, solvent n-propanol): 26.1 to 52.1 mg/mL (≈ 41.6 to 83.1 mM) | solubility ([1]; solvent Water (H2O)): < 1 mg/mL

COC(=O)CCC/C=C(\C)[C@H]1CC[C@H]2[C@@H]3CC=C4C[C@@H](O[C@@H]5C=C[C@H](OC(C)=O)[C@@H](COC(C)=O)O5)CC[C@]4(C)[C@H]3CC[C@]12C [crystalline form I, (E)-methyl 6-((3S,8S,9S,10R,13S,14S,17R)-3-(((2S,5S,6R)-5-acetoxy-6-(acetoxymethyl)-5,6-dihydro-2H-pyran-2-yl)oxy)-10,13-dimethyl-2,3,4,7,8,9,10,11,12,13,14,15,16,17-tetradecahydro-1H-cyclopenta[a]phenanthrene-17-yl)hept-5-enoate]
mass loss (TGA) [2]: 0.078% | Purity (%) ([3]; storage time 1 month): 99.8% | Purity (%) ([3]; storage time 3 months): 99.8% | Purity (%) ([3]; storage time 6 months): 99.8% | Purity (%) ([3]; storage time Initial): 99.8% | Accelerated stability (result in words) ([3]; 40±2° C. & 75±5 RH, 1 month to 6 months): stably maintained for up to 6 months without affecting the purity | Mass change (%) Desorption ([4]; Target RH 0.0%): −0.1124% | Mass change (%) Sorption ([4]; Target RH 0.0%): 0.0000% | Mass change (%) Desorption ([4]; Target RH 5.0%): −0.1004% | Mass change (%) Hysteresis ([4]; Target RH 5.0%): −0.1074% | Mass change (%) Sorption ([4]; Target RH 5.0%): 0.0070% | Mass change (%) Desorption ([4]; Target RH 10.0%): −0.0904% | Mass change (%) Hysteresis ([4]; Target RH 10.0%): −0.1034% | Mass change (%) Sorption ([4]; Target RH 10.0%): 0.0131% | Mass change (%) Desorption ([4]; Target RH 15.0%): −0.0773% | Mass change (%) Hysteresis ([4]; Target RH 15.0%): −0.0964% | Mass change (%) Sorption ([4]; Target RH 15.0%): 0.0191% | Mass change (%) Desorption ([4]; Target RH 20.0%): −0.0673% | Mass change (%) Hysteresis ([4]; Target RH 20.0%): −0.0906% | Mass change (%) Sorption ([4]; Target RH 20.0%): 0.0231% | Mass change (%) Desorption ([4]; Target RH 25.0%): −0.0492% | Mass change (%) Hysteresis ([4]; Target RH 25.0%): −0.0803% | Mass change (%) Sorption ([4]; Target RH 25.0%): 0.0311% | Mass change (%) Desorption ([4]; Target RH 30.0%): −0.0402% | Mass change (%) Hysteresis ([4]; Target RH 30.0%): −0.0723% | Mass change (%) Sorption ([4]; Target RH 30.0%): 0.0321% | Mass change (%) Desorption ([4]; Target RH 35.0%): −0.0261% | Mass change (%) Hysteresis ([4]; Target RH 35.0%): −0.0592% | Mass change (%) Sorption ([4]; Target RH 35.0%): 0.0331% | Mass change (%) Desorption ([4]; Target RH 40.0%): −0.0131% | Mass change (%) Hysteresis ([4]; Target RH 40.0%): −0.0582% | Mass change (%) Sorption ([4]; Target RH 40.0%): 0.0452% | Mass change (%) Desorption ([4]; Target RH 45.0%): 0.0000% | Mass change (%) Hysteresis ([4]; Target RH 45.0%): −0.0512% | Mass change (%) Sorption ([4]; Target RH 45.0%): 0.0512% | Mass change (%) Desorption ([4]; Target RH 50.0%): 0.0141% | Mass change (%) Hysteresis ([4]; Target RH 50.0%): −0.0462% | Mass change (%) Sorption ([4]; Target RH 50.0%): 0.0602% | Mass change (%) Desorption ([4]; Target RH 55.0%): 0.0261% | Mass change (%) Hysteresis ([4]; Target RH 55.0%): −0.0381% | Mass change (%) Sorption ([4]; Target RH 55.0%): 0.0642% | Mass change (%) Desorption ([4]; Target RH 60.0%): 0.0392% | Mass change (%) Hysteresis ([4]; Target RH 60.0%): −0.0351% | Mass change (%) Sorption ([4]; Target RH 60.0%): 0.0743% | Mass change (%) Desorption ([4]; Target RH 65.0%): 0.0522% | Mass change (%) Hysteresis ([4]; Target RH 65.0%): −0.0291% | Mass change (%) Sorption ([4]; Target RH 65.0%): 0.0813% | Mass change (%) Desorption ([4]; Target RH 70.0%): 0.0663% | Mass change (%) Hysteresis ([4]; Target RH 70.0%): −0.0231% | Mass change (%) Sorption ([4]; Target RH 70.0%): 0.0893% | Mass change (%) Desorption ([4]; Target RH 75.0%): 0.0823% | Mass change (%) Hysteresis ([4]; Target RH 75.0%): −0.0191% | Mass change (%) Sorption ([4]; Target RH 75.0%): 0.1014% | Mass change (%) Desorption ([4]; Target RH 80.0%): 0.0964% | Mass change (%) Hysteresis ([4]; Target RH 80.0%): −0.0131% | Mass change (%) Sorption ([4]; Target RH 80.0%): 0.1094% | Mass change (%) Desorption ([4]; Target RH 85.0%): 0.1114% | Mass change (%) Hysteresis ([4]; Target RH 85.0%): −0.0080% | Mass change (%) Sorption ([4]; Target RH 85.0%): 0.1195% | Mass change (%) Desorption ([4]; Target RH 90.0%): 0.1325% | Mass change (%) Hysteresis ([4]; Target RH 90.0%): −0.0010% | Mass change (%) Sorption ([4]; Target RH 90.0%): 0.1335% | Mass change (%) Desorption ([4]; Target RH 95.0%): 0.1436% | Mass change (%) Sorption ([4]; Target RH 95.0%): 0.1436% | Hygroscopicity classification ([4]; 25±1° C., 80±2% RH): non-hygroscopic | water sorption ([4]; at 80% RH): 0.11%

COC(=O)CCC/C=C(\C)[C@H]1CC[C@H]2[C@@H]3CC=C4C[C@@H](O[C@@H]5C=C[C@H](OC(C)=O)[C@@H](COC(C)=O)O5)CC[C@]4(C)[C@H]3CC[C@]12C [crystalline form IV, (E)-methyl 6-((3S,8S,9S,10R,13S,14S,17R)-3-(((2S,5S,6R)-5-acetoxy-6-(acetoxymethyl)-5,6-dihydro-2H-pyran-2-yl)oxy)-10,13-dimethyl-2,3,4,7,8,9,10,11,12,13,14,15,16,17-tetradecahydro-1H-cyclopenta[a]phenanthrene-17-yl)hept-5-enoate]
Change of crystalline form (XRPD pattern) [5, 6]: a novel crystalline form having the XRPD pattern different from that of the crystalline form IV was confirmed | Change of crystalline form (XRPD pattern) [5, 7]: a novel crystalline form having the XRPD pattern different from that of the crystalline form IV was confirmed

COC(=O)CCC/C=C(\C)[C@H]1CC[C@H]2[C@@H]3CC=C4C[C@@H](O[C@@H]5C=C[C@H](OC(C)=O)[C@@H](COC(C)=O)O5)CC[C@]4(C)[C@H]3CC[C@]12C [crystalline form V, (E)-methyl 6-((3S,8S,9S,10R,13S,14S,17R)-3-(((2S,5S,6R)-5-acetoxy-6-(acetoxymethyl)-5,6-dihydro-2H-pyran-2-yl)oxy)-10,13-dimethyl-2,3,4,7,8,9,10,11,12,13,14,15,16,17-tetradecahydro-1H-cyclopenta[a]phenanthrene-17-yl)hept-5-enoate]
Change of crystalline form (XRPD pattern) [5, 6]: a novel crystalline form having the XRPD pattern different from that of the crystalline form V was confirmed | Change of crystalline form (XRPD pattern) [5, 7]: a novel crystalline form having the XRPD pattern different from that of the crystalline form V was confirmed

Reference: patent publication US12103945B2, “Crystalline form of vascular leakage blocker compound” (Curacle Co., Ltd., priority 2020, dated 2024)
